Laboratory results reported in patent US10233186B2, “Inhibitors of activin receptor-like kinase” (BLUEPRINT MEDICINES CORPORATION, priority 2016, dated 2019).

Assays:
[1] = target: T1, ALK2 R206H (GST-tagged mutant ALK2) (Homo sapiens, UniProt Q04771, R206H); test: ALK binding assay (LANTHASCREEN TR-FRET competitive binding, displacement of Kinase Tracer 178); conditions: ALK2 R206H, LANTHASCREEN TR-FRET competitive binding; read-out: Binding Assay (IC50)
T1 construct: purchased Carna Bioscience or ThermoFisher 09-148 or PV6232
T1 sequence (Q04771 21-509 R206H): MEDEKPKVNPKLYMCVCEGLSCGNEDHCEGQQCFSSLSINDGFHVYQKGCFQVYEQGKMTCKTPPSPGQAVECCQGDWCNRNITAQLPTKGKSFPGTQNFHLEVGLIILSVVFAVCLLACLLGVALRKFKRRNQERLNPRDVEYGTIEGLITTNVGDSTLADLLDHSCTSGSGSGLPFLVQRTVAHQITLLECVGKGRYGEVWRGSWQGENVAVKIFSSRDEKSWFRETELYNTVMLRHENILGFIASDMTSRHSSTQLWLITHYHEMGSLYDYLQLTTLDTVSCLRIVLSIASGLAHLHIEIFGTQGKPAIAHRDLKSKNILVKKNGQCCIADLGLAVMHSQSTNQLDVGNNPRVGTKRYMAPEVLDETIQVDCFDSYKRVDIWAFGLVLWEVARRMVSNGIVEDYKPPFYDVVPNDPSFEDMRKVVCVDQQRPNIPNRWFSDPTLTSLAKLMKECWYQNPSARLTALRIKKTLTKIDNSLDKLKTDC

[2] = target: T2, human ALK2 R206H (Homo sapiens, UniProt Q04771, R206H); test: Cell-based ALK2-R206H cell activity assay (Smad1-Ser463/Ser465 phosphorylation by AlphaLISA in HEK293-ALK2-R206H cells); conditions: read-out: Cell Line (Cell Assay IC50)
T2 construct: expressed in transfected cells; host or cells: HEK293 (ATCC CRL1573), lentivirus transduction, blasticidin selection
T2 sequence (Q04771 21-509 R206H): T1 sequence (Q04771 21-509 R206H)
Outline: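 Stable HEK293 cells expressing C-terminally FLAG-tagged human ALK2 R206H (lentiviral, blasticidin-selected) were treated with compounds in 10-point, 3-fold dilutions from 10 μM or 1 μM top, in duplicate. Smad1 Ser463/Ser465 phosphorylation was read by AlphaLISA.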

SMILES	IC50 [1]	IC50 [2]
CC(C)N1CC[C@@H](c2ccc(-c3cc4c(N5CCN(C(=O)[C@H]6C[C@@H]6C#N)CC5)ccnn4c3)cc2)C1 [Compound 298]	< 10 nM	< 100 nM
CCN1CCN(c2ccc(-c3cc4c(N5CCN(C(=O)[C@H]6C[C@@H]6C#N)CC5)ccnn4c3)cc2)CC1 [Compound 302]	< 10 nM	< 100 nM
CCOC1(c2ccc(-c3cc4c(N5CCN(C(=O)OC6COC6)CC5)ccnn4c3)nc2)CCN(C2CC2)CC1 [Compound 855]	< 10 nM	< 100 nM
CC(C)N[C@@H](CO)c1ccc(-c2cc3c(N4CCN(C(=O)OC5COC5)CC4)ccnn3c2)cc1 [Compound 792]	< 10 nM	< 100 nM
CC(C)N1CCC(O)(c2ccc(-c3cc4c(N5CCN(C(=O)C6CC6)CC5)ccnn4c3)cc2)CC1 [Compound 324]	< 10 nM	< 100 nM
O=C(C1CC1)N1CCN(c2ccnn3cc(-c4ccc(O[C@H]5CCCNC5)cc4)cc23)CC1 [Compound 163]	< 10 nM	< 100 nM
CO[C@]1(c2ccc(-c3cc4c(N5CCN(C(=O)OC6COC6)CC5)ccnn4c3)nc2)CCCNC1 [Compound 800]	< 10 nM	< 100 nM
CC(C)N1CCC(c2ccc(-c3cc4c(N5CCN(C(=O)NCCO)CC5)ccnn4c3)cc2)CC1 [Compound 353]	< 10 nM	100 to 500 nM
N#C[C@H]1C[C@@H]1C(=O)N1CCN(c2ccnn3cc(-c4ccc([C@@]5(F)CCCNC5)cc4)cc23)CC1 [Compound 513]	< 10 nM	< 100 nM
CCN1CCC(c2ccc(-c3cc4c(N5CCN(C(=O)C6CC6)CC5)ccnn4c3)cc2)CC1 [Compound 200]	< 10 nM	< 100 nM
CC(C)NC(=O)N1CCN(c2ccnn3cc(-c4ccc(C5CCN(C(C)C)CC5)cc4)cc23)CC1 [Compound 340]	< 10 nM	< 100 nM
CCNC(=O)N1CCN(c2ccnn3cc(-c4ccc([C@@]5(OC)CCCN(C(C)C)C5)cn4)cc23)CC1 [Compound 646]	< 10 nM	< 100 nM
O=C(C1CC1)N1CCN(c2ccnn3cc(-c4ccc(CNC5COC5)cc4)cc23)CC1 [Compound 760]	< 10 nM	100 to 500 nM
CCN1CCN(c2ccc(-c3cc4c(N5CCN(C(=O)C6CC(C)(O)C6)CC5)ccnn4c3)cc2)CC1 (centres unmarked) [Compound 391]	< 10 nM	< 100 nM
CC(C)NC(=O)N1CCN(c2ccnn3cc(-c4ccc(C56CCN(CC5)CC6)cc4)cc23)CC1 [Compound 519]	< 10 nM	< 100 nM
CCNC(=O)N1CCN(c2ccnn3cc(-c4ccc([C@@H]5CCCN5)nc4)cc23)CC1 [Compound 456]	< 10 nM	100 to 500 nM
CCN1CCC(c2ccc(-c3cc4c(N5CCN(C(=O)OC6CCC6)CC5)ccnn4c3)cc2)CC1 [Compound 322]	< 10 nM	< 100 nM
CC(C)N1CCc2nc(-c3cc4c(N5CCN(C(=O)C6CC6)CC5)ccnn4c3)sc2C1 [Compound 191]	< 10 nM	< 100 nM
CCOC(=O)N1CCN(c2ccnn3cc(-c4ccc(C5(OC)CCNCC5)cc4)cc23)CC1 [Compound 498]	< 10 nM	< 100 nM
CCC(=O)N1CCN(c2ccnn3cc(-c4ccc(N5CCN(CC)CC5)cc4)cc23)CC1 [Compound 173]	10 to 50 nM	> 500 nM
CCN1CCC(c2ccc(-c3cc4c(N5CCN(C(=O)N6CC(C#N)C6)[C@H](C)C5)ccnn4c3)cc2)CC1 [Compound 412]	< 10 nM	< 100 nM
O=C(C1CC1)N1CCN(c2ccnn3cc(-c4cccc(C5CNCCO5)c4)cc23)CC1 (centres unmarked) [Compound 128]	10 to 50 nM	100 to 500 nM
CCN1CCC(c2ccc(-c3cc4c(N5CCN(C(=O)C6CC6)[C@H](C)C5)ccnn4c3)cc2)CC1 [Compound 252]	< 10 nM	100 to 500 nM
CCNC(=O)N1CCN(c2ccnn3cc(-c4ccc(C5CCN(C(C)C)CC5)c(F)c4)cc23)CC1 [Compound 354]	< 10 nM	< 100 nM
CCN1CCC(c2ccc(-c3cc4c(N5CCN(C(=O)N6CC(C#N)C6)CC5)ccnn4c3)cc2)C1 (centres unmarked) [Compound 300, 1-(4-(6-(4-(1-ethylpyrrolidin-3-yl)phenyl)pyrrolo[1,2-b]pyridazin-4-yl)piperazine-1-carbonyl)azetidine-3-carbonitrile]	< 10 nM	< 100 nM
Cc1cc(-c2cc3c(N4CCN(C(=O)C5CC5)CC4)ccnn3c2)ccc1[C@H]1CCN(C(C)C)C1 [Compound 504]	< 10 nM	100 to 500 nM

SMILES	IC50 [1]	IC50 [2]
CCOC(=O)N1CCN(c2ccnn3cc(-c4ccc([C@]5(O)CCN(C(C)C)C5)cc4)cc23)CC1 [Compound 551]	< 10 nM	< 100 nM
CCN1CCC(c2ccc(-c3cc4c(N5CCN(C(=O)C6CCC6)CC5)ccnn4c3)cc2)CC1 [Compound 250]	< 10 nM	< 100 nM
CC(C)N1CCC(C)(c2ccc(-c3cc4c(N5CCN(C(=O)OC6COC6)CC5)ccnn4c3)cc2)CC1 [Compound 668]	< 10 nM	100 to 500 nM
C[C@]1(c2ccc(-c3cc4c(N5CCN(C(=O)C6CC6)CC5)ccnn4c3)cc2)CCCN1 [Compound 459]	< 10 nM	< 100 nM
[2H]C([2H])([2H])C([2H])([2H])OC(=O)N1CCN(c2ccnn3cc(-c4ccc([C@@]5(OCC)CCCNC5)cn4)cc23)CC1 [Compound 793]	< 10 nM	< 100 nM
CC(C)NC(=O)N1CCN(c2ccnn3cc(-c4ccc([C@@H]5CCCN5)cn4)cc23)CC1 [Compound 466]	< 10 nM	< 100 nM
O=C(C1CC1)N1CCN(c2ccnn3cc(-c4ccc(C5CCNCC5F)cc4)cc23)CC1 (centres unmarked) [Compound 174]	< 10 nM	100 to 500 nM
O=C(OC1COC1)N1CCN(c2ccnn3cc(-c4ccc(C5CCCN5)cn4)cc23)CC1 (centres unmarked) [Compound 475]	< 10 nM	< 100 nM
CCOC1(c2ccc(-c3cc4c(N5CCN(C(=O)OC6COC6)CC5)ccnn4c3)nc2)CCN(CC(C)F)CC1 (centres unmarked) [Compound 880]	< 10 nM	< 100 nM
CCN(CC)[C@@H](CO)c1ccc(-c2cc3c(N4CCN(C(=O)OC5COC5)CC4)ccnn3c2)cc1 [Compound 805]	< 10 nM	< 100 nM
CC(C)N1CCC(O)(c2ccc(-c3cc4c(N5CCN(C(=O)C6CC6)CC5)ccnn4c3)cc2)C1 (centres unmarked) [Compound 271]	< 10 nM	100 to 500 nM
CCO[C@@]1(c2ccc(-c3cc4c(N5CCN(C(=O)NC(C)C)CC5)ccnn4c3)nc2)CCCN(C(C)C)C1 [Compound 716]	< 10 nM	< 100 nM
CCOC1(c2ccc(-c3cc4c(N5CCN(C(=O)NC(C)C)CC5)ccnn4c3)nc2)CCN(C2COC2)CC1 [Compound 858]	< 10 nM	< 100 nM
CC(C)N1CC(O)(c2ccc(-c3cc4c(N5CCN(C(=O)C6CC(C#N)C6)CC5)ccnn4c3)cc2)C1 (centres unmarked) [Compound 616]	< 10 nM	< 100 nM
CCN1CCN(c2ccc(-c3cc4c(N5CCN(C(=O)C6(c7cccc(Cl)c7)CC6)CC5)ccnn4c3)cc2)CC1 [Compound 447]	10 to 50 nM	> 500 nM
CCN1C[C@@H]2CN(c3ccnn4cc(-c5ccc(N6CCN(C(C)C)CC6)cc5)cc34)CCN2C1=O [Compound 330]	< 10 nM	100 to 500 nM
CCOC1(c2ccc(-c3cc4c(N5CCN(C(=O)NC(C)C)CC5)ccnn4c3)cc2)CCN(C2COC2)CC1 [Compound 856]	< 10 nM	< 100 nM
C[C@H]1CNC[C@H](c2ccc(-c3cc4c(N5CCN(C(=O)C6CC6)CC5)ccnn4c3)cc2)O1 [Compound 169]	< 10 nM	100 to 500 nM
CCNC(=O)N1CCN(c2ccnn3cc(-c4ccc([C@H]5CCCN(C(C)C)C5)cc4)cc23)CC1 [Compound 277]	< 10 nM	< 100 nM
CC(C)N1CCC(c2ccc(-c3cc4c(N5CCN(C(=O)OCC6CC6)CC5)ccnn4c3)cc2)CC1 [Compound 386]	< 10 nM	100 to 500 nM
CC(C)N1CCC(c2ccc(-c3cc4c(N5CCN(C(=O)OC6CC6)CC5)ccnn4c3)cc2)CC1 [Compound 795]	< 10 nM	< 100 nM
CCNC(=O)N1CCN(c2ccnn3cc(-c4ccc([C@@]5(F)CCCNC5)cc4)cc23)CC1 [Compound 189]	< 10 nM	< 100 nM
CC(C)N1CCC[C@@H]1c1ccc(-c2cc3c(N4CCN(C(=O)C5CC5)CC4)ccnn3c2)cc1 [Compound 211]	< 10 nM	< 100 nM
CCN1CCC(c2ccc(-c3cc4c(N5CCN(C(=O)CC6CC6)CC5)ccnn4c3)cc2)C1 (centres unmarked) [Compound 205]	10 to 50 nM	100 to 500 nM
CO[C@]1(c2ccc(-c3cc4c(N5CCN(C(=O)C6CC6)CC5)ccnn4c3)cc2F)CCCN(C(C)C)C1 [Compound 683]	< 10 nM	< 100 nM
CC(C)NC(=O)N1CCN(c2ccnn3cc(-c4ccc([C@]5(C)CN(C(C)C)CCN5C)cc4)cc23)CC1 [Compound 671]	< 10 nM	< 100 nM
